From patent US10717740B2, “Solid forms of acalabrutinib and process for preparation thereof” (DR. REDDY'S LABORATORIES LIMITED, priority 2017, dated 2020)

Assay: Solid-state storage stability of the crystalline form
Assay type: physicochemical

stability of crystalline form on storage (3 months at 2-8° C.): stable
stability of crystalline form on storage (3 months at 25° C./60% RH): stable
stability of crystalline form on storage (3 months at 40° C./75% RH): stable
Compound: CC#CC(=O)N1CCC[C@H]1c1nc(-c2ccc(C(=O)Nc3ccccn3)cc2)c2c(N)nccn12 [form RSV3, acalabrutinib]
